From patent publication US4180669A, “2-(N-phenethyl-4-piperidino)-5-pentyl resorcinol” (Abbott Laboratories, priority 1978, dated 1979) come the findings set out here.

The subject of one assay is pylorous ligated rats. The assay can be described thus: Antisecretory activity in the pylorous ligated rat model. Format: in vivo, male Sprague-Dawley rats. Conditions: for inhibition in vivo at 6.3 mg/kg / inhibition in vivo at 12.5 mg/kg / inhibition in vivo at 25 mg/kg / inhibition in vivo at 50 mg/kg / inhibition in vivo at 100 mg/kg: Rattus norvegicus, 4 h; for inhibition in vivo at 6.3 mg/kg: oral dose 6.3 mg/kg. On the procedure: To determine the antisecretory activity of the present compounds, the compounds were tested for such activity in pylorous ligated rats. In this test, male Sprague-Dawley rats weighing 170-190 g. were fasted for 24 hours. Water was allowed ad libitum. All groups were comprised of six rats. […] Water was withheld after drug administration. Ligation of the pyrloric sphincter was performed under ether anesthesia, and four hours after ligation the animals were sacrificed with CO2. The stomach was dissected out and the contents were expelled into a graduated centrifuge tube. The samples were centrifuged and the volume, less debris, was measured. Sample aliquots were titrated with 0.05 N NaOH to determine acid concentration. Pepsin activity was determined on an auto analyzer using hemoglobin as the substrate by the method of Anson. Group means for volume, acid and pepsin concentrations, and pepsin outputs were compared for statistically significant differences from control means by Student's t-test.

Assay [1] concerns pentagastrin stimulated fistula dog. The assay can be described thus: Antisecretory activity in the pentagastrin stimulated fistula dog. Conditions: pentagastrin 10 μg/kg s.c., 2 hours. Format: in vivo, female beagle dogs. The procedure: In addition to the test described in Example XXXVI, some of the present compounds were tested in dogs.
In this test, female beagle dogs weighing 5.5-7.5 kg. were surgically provided with gastric fistulas at the ventral wall of the stomach near the greater curvature and just proximal to the antrum. The animals were allowed to recover for three to four weeks before handling and training were begun, and experiments were started six to eight weeks after surgery. The individually housed dogs were fasted for 20-24 hours before use. Water was allowed ad lib. Treatment selection was determined by a randomized schedule which included control groups given vehicle (0.5% Methocel® solution) only. During the test period each dog was secured in a standing position with one collar around the neck and another around the lower abdomen. Before drug administration, the cannula plug of the gastric fistula was removed and the pH of the gastric juice was checked. Animals with acidic gastric juice (pH 4.0 or less) were replaced with alternate dogs. Then the drug was administered intragastrically […] through a special gastric cannula instillation plug, 30 minutes prior to subcutaneous administration of a gastric stimulant (pentagastrin, 10 μg/kg).
For each dog, collection of gastric juice was begun immediately after administration of the gastric stimulant and continued for two hours. The volumes of collected gastric juices were measured. The acid concentration and pepsin activity were determined for all samples by automated procedures. For the dog data, as recorded in Table 2, below, group means for volume (ml), acid concentration (acidity, mEq/l), pepsin concentration (mg/ml), acid output (mEq/2 hr), and pepsin output (mg/2 hr) were compared with the respective control means using Student's t-test. The results were also expressed as percent inhibition of the respective individual mean control values.
Group means for volume, acid and pepsin concentrations, acid and pepsin outputs were compared for statistically significant differences from control means by Student's t-test.

The mark [2] stands for this setting: oral dose 50 mg/kg, negative sign means stimulated.
Setting [3] is: oral dose 50 mg/kg, negative sign means stimulated, read-out: Percent inhibition of pepsin.
[4] abbreviates: oral dose 50 mg/kg, negative sign means stimulated, read-out: Percent inhibition of pepsin output.
The mark [5] stands for this setting: oral dose 50 mg/kg, read-out: Percent inhibition of acid output.
The mark [6] stands for this setting: oral dose 50 mg/kg, read-out: Percent inhibition of acidity.
The mark [7] stands for this setting: oral dose 50 mg/kg, read-out: Percent inhibition of volume.

Where a name gives a salt, the structure may show the parent alone. Read-outs that look alike come from different tables or passages of the source.

In the case of “2-(1,2,3,4-Tetrahydro-4-pyridyl)-3-methoxy-5-(1,2-dimethylheptyl)phenol hydrochloride [XXVIII]”, in the assay with pylorous ligated rats (oral dose 12.5 mg/kg), the “Percent inhibition of acid output” value is 7.5%, the “Percent inhibition of acidity” value is 19.2%, the “Percent inhibition of pepsin output” value stood at 10.9% and the “Percent inhibition of volume” value is on record as -14.5%. The “Percent inhibition of pepsin” value in the assay with pylorous ligated rats (oral dose 12.5 mg/kg, negative sign means stimulated) stood at 22.5%. Also, in the assay on pylorous ligated rats (oral dose 25 mg/kg), the “Percent inhibition of acid output” value amounted to 13.1%, the “Percent inhibition of acidity” value came to 27.2%, the “Percent inhibition of pepsin output” value was determined as 0.8% and the “Percent inhibition of volume” value is listed as -19.5%. Moreover, the “Percent inhibition of pepsin” value in the assay with pylorous ligated rats (oral dose 25 mg/kg, negative sign means stimulated) was determined as 17.2%. Besides, in the assay on pylorous ligated rats (oral dose 50 mg/kg), the “Percent inhibition of acid output” value worked out at 68.2%, the “Percent inhibition of acidity” value was determined as 67.1% and the “Percent inhibition of volume” value is listed as 3.7%. For the same compound, in the assay with pylorous ligated rats (setting [2]), the “Percent inhibition of pepsin” value is 7.5% and the “Percent inhibition of pepsin output” value turned out to be 9.1%. Moreover, in the assay on pylorous ligated rats (oral dose 100 mg/kg), the “Percent inhibition of acid output” value is 64.4%, the “Percent inhibition of acidity” value is listed as 71.7%, the “Percent inhibition of pepsin output” value is recorded as 1.8% and the “Percent inhibition of volume” value was -23.1%. For the same compound, in the assay on pylorous ligated rats (oral dose 100 mg/kg, negative sign means stimulated), the “Percent inhibition of pepsin” value was determined as 20.9%. In assay [1] (dose 10 mg/kg), the “% Inhibition of acid output” value amounted to 16.5%, the “% Inhibition of acidity” value was 7.7%, the “% Inhibition of pepsin” value came out at 29.7% and the “% Inhibition of pepsin output” value is given as 35.1%. In assay [1] (dose 10 mg/kg), the “% Inhibition of volume” value was determined as 9.2%. Moreover, in assay [1] (dose 20 mg/kg), the “% Inhibition of acid output” value came out at 17.9%, the “% Inhibition of acidity” value was 26.2%, the “% Inhibition of pepsin” value is 48.0% and the “% Inhibition of pepsin output” value was found to be 41.2%. In addition, the “% Inhibition of volume” value in assay [1] (dose 20 mg/kg) is -12.6%.

With `CC(C)c1cc(O)c(C2=CCN(C)CC2)c(O)c1.Cl` [Example VI, 2-(N-Methyl-1,2,3,6-tetrahydro-4-pyridyl)-5-isopropyl resorcinol hydrochloride], the inhibition in vivo at 6.3 mg/kg is -13.6% with pylorous ligated rats (negative sign means stimulated, read-out: Percent inhibition of pepsin); 23.4% with pylorous ligated rats (read-out: Percent inhibition of acid output); 7% in the assay with pylorous ligated rats (read-out: Percent inhibition of acidity); 7% with pylorous ligated rats (read-out: Percent inhibition of pepsin output); 18.9% in the assay with pylorous ligated rats (read-out: Percent inhibition of volume). In addition, the inhibition in vivo at 12.5 mg/kg with pylorous ligated rats (oral dose 12.5 mg/kg, negative sign means stimulated, read-out: Percent inhibition of pepsin) is -25.3%; in the assay on pylorous ligated rats (oral dose 12.5 mg/kg, read-out: Percent inhibition of acid output), 59.4%; in the assay on pylorous ligated rats (oral dose 12.5 mg/kg, read-out: Percent inhibition of acidity), 21.6%; with pylorous ligated rats (oral dose 12.5 mg/kg, read-out: Percent inhibition of pepsin output), 41.2%; in the assay on pylorous ligated rats (oral dose 12.5 mg/kg, read-out: Percent inhibition of volume), 49.8%. Moreover, the inhibition in vivo at 25 mg/kg is -22.3% with pylorous ligated rats (oral dose 25 mg/kg, negative sign means stimulated, read-out: Percent inhibition of pepsin); 80.9% with pylorous ligated rats (oral dose 25 mg/kg, read-out: Percent inhibition of acid output); 49.9% in the assay with pylorous ligated rats (oral dose 25 mg/kg, read-out: Percent inhibition of acidity); 60.2% with pylorous ligated rats (oral dose 25 mg/kg, read-out: Percent inhibition of pepsin output); 66.1% with pylorous ligated rats (oral dose 25 mg/kg, read-out: Percent inhibition of volume). Further, the inhibition in vivo at 50 mg/kg was -38.6% in the assay on pylorous ligated rats (setting [3]); 54.7% with pylorous ligated rats (setting [4]); 84.4% in the assay with pylorous ligated rats (setting [5]); 51.7% with pylorous ligated rats (setting [6]); 67.3% in the assay with pylorous ligated rats (setting [7]). The inhibition in vivo at 100 mg/kg in the assay with pylorous ligated rats (oral dose 100 mg/kg, negative sign means stimulated, read-out: Percent inhibition of pepsin) was -48.8%; with pylorous ligated rats (oral dose 100 mg/kg, read-out: Percent inhibition of acid output), 87.7%; with pylorous ligated rats (oral dose 100 mg/kg, read-out: Percent inhibition of acidity), 62.1%; in the assay with pylorous ligated rats (oral dose 100 mg/kg, read-out: Percent inhibition of pepsin output), 53.3%; in the assay with pylorous ligated rats (oral dose 100 mg/kg, read-out: Percent inhibition of volume) it was 67.5%. Also, the “% Inhibition of acid output” value in assay [1] (dose 20 mg/kg) came to 26.6%. In addition, the “% Inhibition of acidity” value in assay [1] (dose 20 mg/kg) is listed as 36.6%. For the same compound, the “% Inhibition of pepsin” value in assay [1] (dose 20 mg/kg) is 62.7%. For the same compound, the “% Inhibition of pepsin output” value in assay [1] (dose 20 mg/kg) is listed as 57.1%. Besides, the “% Inhibition of volume” value in assay [1] (dose 20 mg/kg) is recorded as -17.6%.

Take `CCCCCC(C)C(C)c1cc(O)c(C2=CCN(Cc3ccccc3)CC2)c(OC)c1` (centres unmarked) [Example XXVII, 2-(N-Benzyl-1,2,3,6-tetrahydro-4-pyridyl)-3-methoxy-5-(1,2-dimethylheptyl)phenol hydrochloride]: the inhibition in vivo at 50 mg/kg was 12.1% in the assay on pylorous ligated rats (setting [3]), -8.6% in the assay on pylorous ligated rats (setting [4]), -27.8% in the assay with pylorous ligated rats (setting [5]) and -5.6% in the assay on pylorous ligated rats (setting [6]).

Consider `CCCCCC(C)C(C)c1cc(O)c(C2CCNCC2)c(OC)c1` (centres unmarked) [Example XXX, 2-(4-Piperidino)-3-methoxy-5-(1,2-dimethylheptyl)phenol hydrochloride], for which the inhibition in vivo at 50 mg/kg in the assay with pylorous ligated rats (setting [5]) is 34.7%; in the assay with pylorous ligated rats (setting [6]) it was 39.9%; in the assay with pylorous ligated rats (setting [7]), -8.9%.

With `CC(C)c1cc(O)c(C2=CCNCC2)c(O)c1` [XII, 2-(1,2,3,6-Tetrahydro-4-pyridyl)-5-isopropyl resorcinol hydrochloride], the inhibition in vivo at 50 mg/kg with pylorous ligated rats (setting [3]) is -3.9%; in the assay with pylorous ligated rats (setting [4]), 12.8%; in the assay with pylorous ligated rats (setting [5]), 16.6%; in the assay with pylorous ligated rats (setting [6]) it was 1.4%; in the assay with pylorous ligated rats (setting [7]) it was 15.5%.

Regarding `CC(C)c1cc(O)c(C2=CCN(C(C)C)CC2)c(O)c1` [XIII, 2-(N-Isopropyl-1,2,3,6-tetrahydro-4-pyridyl)-5-isopropyl resorcinol hydrochloride], the inhibition in vivo at 50 mg/kg in the assay on pylorous ligated rats (setting [3]) came to 7.1%; in the assay on pylorous ligated rats (setting [4]), 36.4%; with pylorous ligated rats (setting [5]) it was 37.9%; with pylorous ligated rats (setting [6]) it was 9.7%; with pylorous ligated rats (setting [7]) it was 32%.

`CCCCCC(C)C(C)c1cc(O)c(C2CCN(C)CC2)c(O)c1` (centres unmarked) [XVII, 2-(N-Methyl-4-piperidino)-5-(1,2-dimethylheptyl) resorcinol hydrochloride]: the inhibition in vivo at 50 mg/kg in the assay with pylorous ligated rats (setting [3]) worked out at 40.5%; in the assay with pylorous ligated rats (setting [4]), 40.6%; in the assay with pylorous ligated rats (setting [5]), 38.5%; with pylorous ligated rats (setting [6]), 38.1%; with pylorous ligated rats (setting [7]), 0.3%.

With `CCCCCc1cc(O)c(C2CCN(C)CC2)c(O)c1` [XVIII, 2-(N-Methyl-4-piperidino)-5-pentyl resorcinol hydrochloride], the inhibition in vivo at 50 mg/kg in the assay on pylorous ligated rats (setting [3]) was 5.6%; in the assay on pylorous ligated rats (setting [4]), 1.4%; with pylorous ligated rats (setting [5]), 4.5%; with pylorous ligated rats (setting [6]), 8.2%; with pylorous ligated rats (setting [7]), -5.2%.

Take `CCCCCc1cc(O)c(C2CC3CCC(C2)N3C)c(O)c1` (centres unmarked) [XXIV, 2-(N-Methyl-2,6-ethylidene-4-piperidino)-5-pentyl resorcinol hydrochloride]: the inhibition in vivo at 50 mg/kg with pylorous ligated rats (setting [3]) is 21%; with pylorous ligated rats (setting [4]) it was 22.2%; in the assay on pylorous ligated rats (setting [5]), 0.9%; in the assay on pylorous ligated rats (setting [6]) it was -2.5%; with pylorous ligated rats (setting [7]), 2.8%.
